Each structure is given as a SMILES string. Values joined by “and” are separate entries in the source; they are usually repeats but may differ in a detail not shown here. Identical values can stand only once. Counter-ions that a name gives are not always drawn. Like-named read-outs stand apart in the source and are kept apart here.

The test system of assay [1] is TNFα release, U937 cells. Description: U937 Cell TNFα Release Assay (LPS-stimulated, TNFα ELISA). The following applies: additional values are replicate IC50 experiments, read-out: TNF Release Assay Avg. IC50. The class given is cell-based, human. The procedure:
U937 Cell TNFα Release Assay
Differentiation of U937 to monocytic/macrophage-like cells is induced by the addition of phorboll2-myristate 13-acetate (Sigma) at final concentration of 20 ng/ml to a culture of U937 cells at ˜0.5 million cells/ml and incubated for 24 hrs. The cells are centrifuged, washed with PBS and resuspended in fresh media without PMA and incubated for 24 hrs. Cells adherent to the culture flask are harvested by scraping, centrifugation, and resuspended in fresh media to 2 million cells/ml, and 0.2 ml is aliquoted to each of 96 wells in flat-bottom plate. Cells are then incubated for an additional 24 hrs to allow for recovery. The media is removed from the cells, and 0.1 ml of fresh media is added per well. 0.05 ml of serially diluted compound or control vehicle (Media with DMSO) is added to the cells. […] Cells are incubated at 37° C. for 4 hrs. After 4 hrs incubation, supernatants are harvest and assayed by ELISA for the presence of TNFα.
Coating solution was aspirated the following day and wells were blocked with 1 mg/ml gelatin in PBS (plus 1×thimerasol) for 2 days at 4° C. Prior to using, wells were washed 3× with wash buffer (PBS with 0.05% Tween). Cultured media samples were diluted in EIA buffer (5 mg/ml bovine γ-globulin, 1 mg/ml gelatin, 1 ml/l Tween-20, 1 mg/ml thimerasol in PBS), added to wells (0.1 ml/well) in triplicate and allowed to incubate for 1.5 hr at 37° C. in a humidified chamber. […] After final washing, plates were developed with peroxidase-ABTS solution (Kirkegaard/Perry #50-66-01, 0.1 ml/well). […] TNF levels were quantitated from a recombinant human TNFα (R&D Systems #210-TA-010) standard curve using a quadratic parameter fit generated by SoftMaxPRO software. ELISA sensitivity was approximately 30 pg TNF/ml. IC50 values for compounds were generated using BioAssay Solver.
In general terms: An ELISA detects its analyte on a solid surface through an enzyme-linked reagent.

The target of assay [2] is Recombinant MAPKAPK2 (Homo sapiens, UniProt P49137). Description: Determination of MK-2 IC50 (HSP-peptide phosphorylation, anion exchange resin capture assay).
Experimental: The phosphorylation of HSP-peptide ([sequence]) by MAPKAPK2 was measured using an anion exchange resin capture assay method. […] The reaction was terminated and [γ^33P]ATP was removed from solution by the addition of 150 μl of AG 1×8 ion exchange resin in 900 mM sodium formate pH 3.0. A 50 μl aliquot of head volume was removed from the quenched reaction mixture and added to a 96-well plate, 150 μl of Microscint-40 (Packard) was added and the amount of phosphorylated-peptide was determined. Allow the Microscint to sit in the plates for 60 minutes prior to counting.
Compounds are evaluated as potential inhibitors of the MK2 kinase by measuring their effects on MK2 phosphorylation of the peptide substrate. Compounds may be screened initially at two concentrations prior to determination of IC50 values. Screening results are expressed as percent inhibition at the concentrations of compound tested. For IC50 value determinations, compounds are tested at six concentrations in ten-fold serial dilutions with each concentration tested in triplicate. Results are expressed as IC50 values in micromolar. The assay is performed at a final concentration of 2% DMSO.
In assay [3] the test system is murine model of endotoxin-induced shock. The following applies: cited from earlier work.
Assay [4] deals with mouse collagen-induced arthritis. The conditions noted are these: in vivo; cited from earlier work.
For assay [5], the system named is rat adjuvant arthritis. The conditions noted are these: in vivo; cited from earlier work.
Setting [6] is: Homo sapiens, U-937, U937 cells.
The mark [7] stands for this setting: read-out: in vitro MK-2 inhibition IC50.

Chain of Recombinant MAPKAPK2 (P49137 whole entry, species assumed): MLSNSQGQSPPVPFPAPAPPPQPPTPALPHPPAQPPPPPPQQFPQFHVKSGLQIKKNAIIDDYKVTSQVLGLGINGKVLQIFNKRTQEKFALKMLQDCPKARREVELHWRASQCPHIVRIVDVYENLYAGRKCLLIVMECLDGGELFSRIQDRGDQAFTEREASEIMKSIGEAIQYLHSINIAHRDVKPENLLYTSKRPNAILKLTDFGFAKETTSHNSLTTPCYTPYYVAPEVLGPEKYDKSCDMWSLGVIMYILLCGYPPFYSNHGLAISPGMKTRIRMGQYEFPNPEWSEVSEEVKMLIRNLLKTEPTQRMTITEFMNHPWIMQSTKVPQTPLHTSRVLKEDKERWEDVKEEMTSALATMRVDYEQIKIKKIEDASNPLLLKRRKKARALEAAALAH

On to `O/N=C1\CCCc2c1[nH]c1ccc(Br)cc21` [Compound 14], for which the concentration for half-maximal inhibition (IC50) in assay [1] (setting [6]) amounted to 15.3 µM; in assay [2] it was 7.01 µM.

Turning to `COC(=O)c1cccc2c3c([nH]c12)CCNC3=O` [Example 6, methyl 1-oxo-2,3,4,5-tetrahydro-1H-pyrido[4,3-b]indole-6-carboxylate], the half-inhibitory concentration (IC50) in assay [2] (setting [7]) is < 20 µM.

With `O=C1NCCc2c1[nH]c1ccc(CCc3ccccc3)cc21` [Compound 42, 6-(2-phenylethyl)-2,3,4,9-tetra-hydro-1H-beta-car-bolin-1-one], in assay [2], the IC50 is > 200 µM.

Consider `ON=C1CCCc2c1[nH]c1ccc(C(F)(F)F)cc21` [6-(trifluoromethyl)-2,3,4,9-tetrahydro-1H-carbazol-1-one oxime], for which, in assay [2] (setting [7]), the 50% inhibitory concentration (IC50) is < 200 µM.

On to `C[S+]([O-])c1ccc(-c2nc(-c3ccncc3)c(-c3ccc(F)cc3)[nH]2)cc1` (stereo not shown) [SB203580], for which the mortality entry in assay [3] is reported as “reduce mortality”. Moreover, the “development of mouse collagen-induced arthritis” value in assay [4] was “inhibit the development”. In assay [5], the “development of rat adjuvant arthritis” value is “inhibit the development”.

Take `COc1ccc2[nH]c3c(c2c1)CCC(C)/C3=N/O` (stereo not shown) [Compound 19, 6-methoxy-2-methyl-2,3,4,9-tetrahydro-1H-car-bazol-1-one oxime]: in assay [1] (U937 cells), the IC50 is 100 µM and 95 µM.

As to `O=C1NCCc2[nH]c3c(ccc4cnccc43)c21` [Compound 1, 8,9,10,11-tetrahydro-7H-py-rido[3′,4′:4,5]pyrrolo[2,3-f]isoquinolin-7-one trifluoroacetate], the half-inhibitory concentration (IC50) in assay [1] (setting [6]) was found to be 0.845 µM.

By IC50 is commonly meant the concentration at which inhibition is half-maximal.

The values above are taken from patent US20050143371A1, “Beta-carboline compounds and analogues thereof as mitogen-activated protein kinase-activated protein kinase-2 inhibitors” (Pharmacia Corporation, priority 2003, published 2005).
